Measurements: ChEMBL document CHEMBL1147255, “Isolation and structure elucidation of Sch 642305, a novel bacterial DNA primase inhibitor produced by Penicillium verrucosum” (J Nat Prod, 2003)
Values after ≈ are worked out from the molar mass of the structure shown.

Test system: Escherichia coli
Experiment: Antibacterial activity against Escherichia coli HS294 after 18 hrs by microtitre plate method
Assay type: functional

MIC: 40 µg/mL (≈ 159 µM)
SMILES: C[C@H]1CCCC[C@H]2C(=O)C=C[C@H](O)[C@@H]2CC(=O)O1
